Assay [1] deals with synthesis of LTB4 in human whole blood. Description: Human whole blood assay (inhibition of LTB4 synthesis, calcimycin stimulated). In kind it is cell-based. Particulars: heparinized human whole blood, calcimycin 20 μM, plasma LTB4. As for the experimental part: Compounds are additionally tested in a human whole blood assay to determine their ability to inhibit the synthesis of LTB4 in a cellular system. Compounds are combined with heparinized human whole blood and incubated for 15 minutes at 37° C. Calcimycin (20 μM final, prepared in phosphate-buffered saline, pH 7.4) is then added and the mixture is incubated for another 30 minutes at 37° C. The samples are centrifuged for 5 min at low speed (1500×g) and the plasma layer is removed. Plasma LTB4 concentrations are then measured using an antibody-based homogenous time-resolved fluorescence method (CisBio, Bedford, Mass.).

Assay [2] deals with T1, recombinant human FLAP protein (Homo sapiens, UniProt P20292).
T1 construct: made in house; host or cells: Sf9 insect cells (100,000×g membrane pellet used)
T1 sequence (P20292 1-161): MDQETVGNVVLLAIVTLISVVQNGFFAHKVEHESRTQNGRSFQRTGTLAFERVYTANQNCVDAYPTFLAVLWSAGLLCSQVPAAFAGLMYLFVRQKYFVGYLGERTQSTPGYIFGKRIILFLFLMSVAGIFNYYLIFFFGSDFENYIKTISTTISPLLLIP
As to the kind of experiment: FLAP binding assay (SPA, displacement of [125I]L-691,831). To be noted: membranes of sf9 cells expressing recombinant human FLAP; [125I]L-691,831 probe; read-out: FLAP binding IC50. As for the experimental part: Assessment of Biological Properties 1. Binding Assay
Compounds are assessed for the ability to bind to FLAP in a binding assay that measures compound-specific displacement of an iodinated (^125I) FLAP inhibitor via a Scintillation Proximity Assay format (adapted from S. Charleson et al., Mol. Pharmacol., 1992, 41, 873-879).
Cell pellets produced from sf9 insect cells expressing recombinant human FLAP protein are resuspended in buffer A [15 mM Tris-HCl (pH 7.5), 2 mM MgCl2, 0.3 mM EDTA, 1 mM PMSF]. The cells are lysed with a Dounce homogenizer and the material is centrifuged at 10,000×g for 10 minutes. The supernatant is then collected and centrifuged at 100,000×g for 60 minutes. To prepare membrane protein for an assay, an aliquot of the 100,000×g pellet is resuspended in 1 ml of buffer A, Dounce homogenized, and finally subjected to polytron mixing (30 seconds). Membrane protein (25 μl, 5 μg) is mixed with WGA SPA beads (Amersham) and stirred for 1 h. […] (final concentrations: beads, 200 μg/well; protein, 5 μg/well; [^125I] probe, 0 08 nM/well (17 nCi/well). The plates are shaken for 2 h before reading on a Microbeta plate reader. Non-specific binding is determined by the addition of 10 μM cold L-691,831 compound.

SMILES strings stand for the structures.

As for `CC(C)(O)CNc1cnc(-c2nc(C(C)(c3ccc(-c4cnc(N)nc4)cc3)C3CCC3)no2)cn1` (stereo not shown) [Example 35, 1-{[5-(3-{1-[4-(2-aminopyrimidin-5-yl)phenyl]-1-cyclobutylethyl}-1,2,4-oxadiazol-5-yl)pyrazin-2-yl]amino}-2-methylpropan-2-ol], the IC50 was 360 nM in assay [1] and 3.2 nM in assay [2].
As for `COCCNc1cnc(-c2nc(C(C)(c3ccc(-c4cnc(N)nc4)cc3)C3CCC3)no2)cn1` (stereo not shown) [Example 36, 5-{4-[1-cyclobutyl-1-(5-{5-[(2-methoxyethyl)amino]pyrazin-2-yl}-1,2,4-oxadiazol-3-yl)ethyl]phenyl}pyrimidin-2-amine], the IC50 in assay [1] turned out to be 170 nM; in assay [2] it was 3.2 nM.
`Cc1ccc(-c2nc(C(C)(C)c3ccc(-c4cnc(N)nc4)cc3)no2)cn1` [Example 37, 5-(4-{2-[5-(6-methylpyridin-3-yl)-1,2,4-oxadiazol-3-yl]propan-2-yl}phenyl)pyrimidin-2-amine]: the figures for the IC50 in assay [1] and in assay [2] were 250 nM and 7.4 nM, respectively.
Turning to `COCCNc1ccc(-c2nc(C(C)(c3ccc(-c4cnc(N)nc4)cc3)C3CC3)no2)cn1` (stereo not shown) [Example 38, 5-{4-[1-cyclopropyl-1-(5-{6-[(2-methoxyethyl)amino]pyridin-3-yl}-1,2,4-oxadiazol-3-yl)ethyl]phenyl}pyrimidin-2-amine], the figures for the half-maximal inhibitory concentration (IC50) in assay [1] and in assay [2] were 97 nM and 2.2 nM, respectively.
Take `CC(C)(O)CNc1ccc(-c2nc(C(C)(c3ccc(-c4cnc(N)nc4)cc3)C3CC3)no2)cn1` (stereo not shown) [Example 39, 1-{[5-(3-{1-[4-(2-aminopyrimidin-5-yl)phenyl]-1-cyclopropylethyl}-1,2,4-oxadiazol-5-yl)pyridin-2-yl]amino}-2-methylpropan-2-ol]: the half-maximal inhibitory concentration (IC50) in assay [1] was found to be 110 nM; in assay [2] it was 2.1 nM.
Regarding `CC(O)CNc1ccc(-c2nc(C(C)(c3ccc(-c4cnc(N)nc4)cc3)C3CC3)no2)cn1` (stereo not shown) [Example 40, 1-{[5-(3-{1-[4-(2-aminopyrimidin-5-yl)phenyl]-1-cyclopropylethyl}-1,2,4-oxadiazol-5-yl)pyridin-2-yl]amino}propan-2-ol], the results for the IC50 in assay [1] and in assay [2] were 100 nM and 2.3 nM, respectively.
On to `CC(c1ccc(-c2cnc(N)nc2)cc1)(c1noc(-c2ccc(NCCS(C)(=O)=O)nc2)n1)C1CC1` (stereo not shown) [Example 41, 5-(4-{1-cyclopropyl-1-[5-(6-{[2-(methylsulfonyl)ethyl]amino}pyridin-3-yl)-1,2,4-oxadiazol-3-yl]ethyl}phenyl)pyrimidin-2-amine], for which the IC50 was determined as 170 nM in assay [1] and 2.2 nM in assay [2].
Turning to `COCCNc1cnc(-c2nc(C(C)(c3ccc(-c4cnc(N)nc4)cc3)C3CC3)no2)cn1` (stereo not shown) [Example 42, 5-{4-[1-cyclopropyl-1-(5-{5-[(2-methoxyethyl)amino]pyrazin-2-yl}-1,2,4-oxadiazol-3-yl)ethyl]phenyl}pyrimidin-2-amine], the IC50 stood at 25 nM in assay [1] and 1.5 nM in assay [2].
Turning to `CC(c1ccc(-c2cnc(N)nc2)cc1)(c1noc(-c2cnn(C3COC3)c2)n1)C1CC1` (stereo not shown) [Example 43, 5-[4-(1-cyclopropyl-1-{5-[1-(oxetan-3-yl)-1H-pyrazol-4-yl]-1,2,4-oxadiazol-3-yl}ethyl)phenyl]pyrimidin-2-amine], the IC50 in assay [1] stood at 30 nM; in assay [2] it was 2.5 nM.
On to `CC(C)(O)CNc1cnc(-c2nc(C(C)(c3ccc(-c4cnc(N)nc4)cc3)C3CC3)no2)cn1` (stereo not shown) [Example 44, 1-{[5-(3-{1-[4-(2-aminopyrimidin-5-yl)phenyl]-1-cyclopropylethyl}-1,2,4-oxadiazol-5-yl)pyrazin-2-yl]amino}-2-methylpropan-2-ol], for which the IC50 in assay [1] was determined as 150 nM; in assay [2], 2.2 nM.
Regarding `CC(C)(CO)Nc1cnc(-c2nc(C(C)(c3ccc(-c4cnc(N)nc4)cc3)C3CC3)no2)cn1` (stereo not shown) [Example 45, 2-{[5-(3-{1-[4-(2-aminopyrimidin-5-yl)phenyl]-1-cyclopropylethyl}-1,2,4-oxadiazol-5-yl)pyrazin-2-yl]amino}-2-methylpropan-1-ol], the IC50 is 140 nM in assay [1] and 3.1 nM in assay [2].
Take `C[C@@](c1ccc(-c2cnc(N)nc2)cc1)(c1noc(-c2cn[nH]c2)n1)C1CC1` [Example 48, 5-(4-{(R)-1-cyclopropyl-1-[5-(1H-pyrazol-4-yl)-[1,2,4]oxadiazol-3-yl]-ethyl}-phenyl)-pyrimidin-2-ylamine]: the IC50 came to 190 nM in assay [1] and 6.8 nM in assay [2].
For `C[C@](c1ccc(-c2cnc(N)nc2)cc1)(c1noc(-c2cn[nH]c2)n1)C1CC1` [Example 49, 5-(4-{(1S)-1-cyclopropyl-1-[5-(1H-pyrazol-4-yl)-1,2,4-oxadiazol-3-yl]ethyl}phenyl)pyrimidin-2-amine], the values for the IC50 in assay [1] and in assay [2] were 680 nM and 19 nM, respectively.
For `CC(C)(O)CNc1cnc(-c2nc([C@@](C)(c3ccc(-c4cnc(N)nc4)cc3)C3CC3)no2)cn1` [Example 50, 1-{[5-(3-{(1R)-1-[4-(2-aminopyrimidin-5-yl)phenyl]-1-cyclopropylethyl}-1,2,4-oxadiazol-5-yl)pyrazin-2-yl]amino}-2-methylpropan-2-ol], in that order: 95 nM and 1.3 nM.
Consider `CC(C)(O)CNc1cnc(-c2nc([C@](C)(c3ccc(-c4cnc(N)nc4)cc3)C3CC3)no2)cn1` [Example 51, 1-{[5-(3-{(1S)-1-[4-(2-aminopyrimidin-5-yl)phenyl]-1-cyclopropylethyl}-1,2,4-oxadiazol-5-yl)pyrazin-2-yl]amino}-2-methylpropan-2-ol], for which the IC50 stood at 140 nM in assay [1] and 3.9 nM in assay [2].
In the case of `COCCn1cc(-c2nc([C@@](C)(c3ccc(-c4cnc(N)nc4)cc3)C3CC3)no2)cn1` [Example 52, 5-{4-[(1R)-1-cyclopropyl-1-{5-[1-(2-methoxyethyl)-1H-pyrazol-4-yl]-1,2,4-oxadiazol-3-yl}ethyl]phenyl}pyrimidin-2-amine], the IC50 in assay [1] is 26 nM; in assay [2], 2.4 nM.
In the case of `COCCn1cc(-c2nc([C@](C)(c3ccc(-c4cnc(N)nc4)cc3)C3CC3)no2)cn1` [Example 53, 5-{4-[(1S)-1-cyclopropyl-1-{5-[1-(2-methoxyethyl)-1H-pyrazol-4-yl]-1,2,4-oxadiazol-3-yl}ethyl]phenyl}pyrimidin-2-amine], the 50% inhibitory concentration (IC50) in assay [1] worked out at 450 nM; in assay [2], 27 nM.
For `C[C@@](c1ccc(-c2cnc(N)nc2)cc1)(c1noc(-c2cnn(C3COC3)c2)n1)C1CC1` [Example 54, 5-{4-[(1R)-1-cyclopropyl-1-{5-[1-(oxetan-3-yl)-1H-pyrazol-4-yl]-1,2,4-oxadiazol-3-yl}ethyl]phenyl}pyrimidin-2-amine], in that order: 27 nM and 2.6 nM.
For `C[C@](c1ccc(-c2cnc(N)nc2)cc1)(c1noc(-c2cnn(C3COC3)c2)n1)C1CC1` [Example 55, 5-{4-[(1S)-1-cyclopropyl-1-{5-[1-(oxetan-3-yl)-1H-pyrazol-4-yl]-1,2,4-oxadiazol-3-yl}ethyl]phenyl}pyrimidin-2-amine], the IC50 amounted to 200 nM in assay [1] and 11 nM in assay [2].
Take `Cn1cc(-c2nc(C(c3ccc(-c4cnc(N)nc4)cc3)C(C)(C)C)no2)cn1` (stereo not shown) [Example 58, 5-(4-{2,2-dimethyl-1-[5-(1-methyl-1H-pyrazol-4-yl)-1,2,4-oxadiazol-3-yl]propyl}phenyl)pyrimidin-2-amine]: the IC50 in assay [1] was found to be 190 nM; in assay [2], 11 nM.
Turning to `CN(C)C(=O)Cn1cc(-c2nc(C(C)(c3ccc(-c4cnc(N)nc4)cc3)C3CC3)no2)cn1` (stereo not shown) [Example 59, 2-[4-(3-{1-[4-(2-aminopyrimidin-5-yl)phenyl]-1-cyclopropylethyl}-1,2,4-oxadiazol-5-yl)-1H-pyrazol-1-yl]-N,N-dimethylacetamide], the IC50 in assay [1] worked out at 76 nM; in assay [2], 1.1 nM.
`CNC(=O)Cn1cc(-c2nc(C(C)(c3ccc(-c4cnc(N)nc4)cc3)C3CC3)no2)cn1` (stereo not shown) [Example 60, 2-[4-(3-{1-[4-(2-aminopyrimidin-5-yl)phenyl]-1-cyclopropylethyl}-1,2,4-oxadiazol-5-yl)-1H-pyrazol-1-yl]-N-methylacetamide]: the IC50 was 140 nM in assay [1] and 4 nM in assay [2].
Regarding `Cn1cc(-c2nc([C@@](C)(c3ccc(-c4cnc(N)nc4)cc3)C3CC3)no2)cn1` [Example 61, 5-(4-{(1R)-1-cyclopropyl-1-[5-(1-methyl-1H-pyrazol-4-yl)-1,2,4-oxadiazol-3-yl]ethyl}phenyl)pyrimidin-2-amine], the values for the IC50 in assay [1] and in assay [2] were 15 nM and 1.3 nM, respectively.

The record behind these values is patent publication US8658661B2, “Oxadiazole inhibitors of leukotriene production” (Boehringer Ingelheim International GmbH, priority 2010, dated 2014).
